Values of other authors, collected in US6576415B2, “Photothermographic materials with increa sed photosensitivity” (priority 2000, dated 2003).
Where two headings read alike, the source gives them in different places.

SMILES | Solubility in water (at 20° C.) [µg/mL] | Solubility in water (at 15° C.) [µg/mL]
O=P(=O)[O-].[Ag+] [silver metaphosphate] | 3200 | 
[Ag+].[Ag+].[O]=[W](=[O])([O-])[O-] [silver tungstate] |  | 500
